10 molecules from DBAASP can be followed below.

Molecules are shown by their SMILES. ≈ marks a conversion by molar mass, not a printed value.

Some test systems named below: Escherichia coli ML-35p; Bacillus subtilis; Bacillus cereus; Escherichia coli; Streptococcus uberis; Pasteurella multocida; Micrococcus luteus; Staphylococcus aureus; Leuconostoc lactis; Listeria innocua; Escherichia coli O111.
Assay in all cases: ≥ marks a high value that may be exact or a test limit, other limits are often not marked, values filed in µg/mL are converted to µM
The subject of assay [1] is Staphylococcus aureus ATCC 25923.
Assay [2] concerns Candida albicans ATCC 2002.
In assay [3] the test system is Staphylococcus aureus ATCC 43300.
The subject of assay [4] is Bacillus subtilis CMCC 63501.
The test system of assay [5] is Salmonella enterica subsp. enterica serovar Pullorum C79-13.
Assay [6] has as its system Pseudomonas aeruginosa ATCC 27853.
Assay [7] deals with Staphylococcus aureus ATCC 29213.
In assay [8] the test system is Enterococcus faecalis ATCC 29212.
For assay [9], the system named is Salmonella enterica subsp. enterica serovar Typhimurium C77-31.
In assay [10] the test system is Escherichia coli ATCC 25922.
Assay [11] deals with Staphylococcus epidermidis ATCC 12228.
The test system of assay [12] is Staphylococcus epidermidis.
Assay [13] concerns Listeria monocytogenes LO28.
Assay [14] relates to Cronobacter sakazakii DPC 6440.

The MIC is the least concentration at which growth counts as inhibited. Higher therefore signals a less susceptible organism. As to `CC[C@H](C)[C@H](NC(=O)CNC(=O)[C@H](C)NC(=O)[C@H](C)NC(=O)[C@@H](NC(=O)[C@H](CCCCN)NC(=O)[C@H](CC(C)C)NC(=O)[C@@H](NC(=O)[C@@H]1CCCN1C(=O)CNC(=O)[C@@H](NC(=O)[C@@H](N)Cc1ccccc1)[C@@H](C)CC)C(C)C)[C@@H](C)CC)C(=O)N[C@@H](CC(C)C)C(=O)N1CCC[C@H]1C(=O)N[C@H](C(=O)N[C@@H](C)C(=O)N[C@H](C(=O)N[C@H]1CSSC[C@@H](C(=O)O)NC(=O)[C@H](CCCCN)NC(=O)[C@H](CCCCN)NC(=O)[C@H](Cc2ccccc2)NC(=O)[C@H]([C@@H](C)CC)NC(=O)[C@H](CCCCN)NC1=O)[C@@H](C)CC)[C@@H](C)O` [FIGPVLKIAAGILPTAICKIFKKC], the MIC in [1] came out at 0.919 µM (≈ 2.34 µg/mL); in [2], 1.84 µM (≈ 4.69 µg/mL); in the assay with Escherichia coli ML-35p, 7.37 µM (≈ 18.7 µg/mL); in assay [3], 3.69 µM (≈ 9.37 µg/mL); with Bacillus subtilis it was 1.84 µM (≈ 4.69 µg/mL).

With `NC(=O)[C@H](Cc1ccccc1)NC(=O)[C@H](CCCN=C(N)N)NC(=O)[C@H](Cc1ccccc1)NC(=O)[C@H](CCCN=C(N)N)NC(=O)[C@H](CS)NC(=O)[C@H](Cc1ccccc1)NC(=O)[C@H](CCCN=C(N)N)NC(=O)[C@H](CCCN=C(N)N)NC(=O)[C@H](CCCN=C(N)N)NC(=O)[C@H](CS)NC(=O)[C@H](CCCN=C(N)N)NC(=O)[C@H](Cc1ccccc1)NC(=O)[C@H](CCCN=C(N)N)NC(=O)[C@@H](N)Cc1ccccc1` [FRFRCRRRFCRFRF], the MIC in assay [4] was 2 µM (≈ 4.11 µg/mL); in assay [5], 1 µM (≈ 2.05 µg/mL); in assay [6] it was 4 µM (≈ 8.21 µg/mL); in assay [7] it was 2 µM (≈ 4.11 µg/mL); in [8] it was 4 µM (≈ 8.21 µg/mL); in assay [9], 2 µM (≈ 4.11 µg/mL). Also, the MIC in assay [10] came to 1 µM (≈ 2.05 µg/mL); in assay [11], 2 µM (≈ 4.11 µg/mL).

With `CC[C@H](C)[C@H](NC(=O)[C@@H](NC(=O)[C@H](CO)NC(=O)[C@H](C)NC(=O)[C@@H](NC(=O)[C@H](CCCCN)NC(=O)[C@H](CCCCN)NC(=O)[C@@H](NC(=O)[C@@H](NC(=O)[C@H](CC(=O)O)NC(=O)[C@H](Cc1ccccc1)NC(=O)[C@H](CC(C)C)NC(=O)CN)C(C)C)[C@@H](C)CC)C(C)C)C(C)C)C(=O)N[C@@H](CCCCN)C(=O)N[C@@H](CCCCN)C(=O)N[C@@H](CC(C)C)C(N)=O` [GLFDVIKKVASVIKKL], the MIC is 14.2 µM (≈ 25 µg/mL) in the assay on Bacillus cereus; above 56.9 µM against Escherichia coli; 6.83 µM (≈ 12 µg/mL) in [12]; 28.4 µM (≈ 50 µg/mL) with Streptococcus uberis; at least 56.9 µM against Pasteurella multocida; 28.4 µM (≈ 50 µg/mL) against Micrococcus luteus. Besides, the values for the MIC in the assay on Staphylococcus aureus, against Leuconostoc lactis and in the assay on Listeria innocua were 56.9 µM (≈ 99.9 µg/mL), 1.71 µM (≈ 3 µg/mL) and 28.4 µM (≈ 50 µg/mL), respectively.

Turning to `CC[C@H](C)[C@H](NC(=O)[C@H](C)NC(=O)[C@@H]1CCCN1C(=O)[C@H](CC(C)C)NC(=O)[C@@H](NC(=O)[C@H](Cc1cnc[nH]1)NC(=O)[C@H](CO)NC(=O)[C@@H](NC(=O)[C@@H](NC(=O)[C@H](CO)NC(=O)CNC(=O)[C@H](CC(C)C)NC(=O)[C@H](CC(C)C)NC(=O)CNC(=O)[C@H](CC(C)C)NC(=O)[C@H](CC(C)C)NC(=O)CN)C(C)C)C(C)C)C(C)C)C(=O)N[C@H](C(=O)N[C@@H](CCC(N)=O)C(=O)N[C@@H](Cc1cnc[nH]1)C(=O)N[C@@H](CC(C)C)C(N)=O)[C@@H](C)O` [GLLGLLGSVVSHVLPAITQHL], the MIC against Bacillus cereus is at least 47.1 µM; against Escherichia coli it was above 47.1 µM; in assay [12], 23.5 µM (≈ 50 µg/mL); with Streptococcus uberis, 23.5 µM (≈ 50 µg/mL); in the assay with Pasteurella multocida it was at least 47.1 µM; against Micrococcus luteus it was 23.5 µM (≈ 50 µg/mL). The figures for the MIC against Staphylococcus aureus, against Leuconostoc lactis and against Listeria innocua were 23.5 µM (≈ 50 µg/mL), 2.82 µM (≈ 6 µg/mL) and at least 47.1 µM, respectively.

In the case of `CCC(C)[C@H](N=C(O)C(CO)N=C(O)[C@H](CO)N=C(O)[C@@H](N=C(O)C(CC(C)C)N=C(O)CN)C(C)C)C(O)=NCC(O)=N[C@@H](CCCNC(=N)N)C(O)=N[C@@H](C)C(O)=N[C@@H](CC(C)C)C(O)=NCC(O)=NCC(O)=N[C@@H](CC(C)C)C(O)=N[C@@H](CC(C)C)C(O)=N[C@@H](C)C(O)=NC(CC(=O)O)C(O)=NC(C(O)=N[C@@H](C(O)=N[C@H](CCCCN)C(O)=N[C@H](CO)C(O)=N[C@H](CCCCN)C(O)=NCC(O)=N[C@H](CCC(=N)O)C(=O)N1CCCC1C(O)=N[C@H](C)C(=O)O)C(C)C)C(C)C` (stereo not given in full) [GLVSSIGRALGGLLADVVKSKGQPA], the MIC is at least 41.8 µM with Bacillus cereus; above 41.8 µM in the assay on Escherichia coli; at least 41.8 µM in [12]; at least 41.8 µM against Streptococcus uberis; 10.4 µM (≈ 25 µg/mL) against Pasteurella multocida; at least 41.8 µM in the assay on Micrococcus luteus. Also, the MIC with Staphylococcus aureus is above 41.8 µM; against Leuconostoc lactis, at least 41.8 µM; against Listeria innocua, at least 41.8 µM.

For `CC[C@H](C)[C@H](NC(=O)[C@@H](NC(=O)CN)C(C)C)C(=O)N[C@@H](CC(=O)O)C(=O)N[C@@H](C)C(=O)N[C@@H](C)C(=O)N[C@@H](C)C(=O)N[C@@H](CCCCN)C(=O)N[C@H](C(=O)N[C@H](C(=O)N[C@@H](CC(N)=O)C(=O)N[C@H](C(=O)N[C@@H](CC(C)C)C(=O)N[C@@H](CCCCN)C(=O)N[C@@H](CC(N)=O)C(=O)N[C@@H](CC(C)C)C(=O)N[C@@H](Cc1ccccc1)C(N)=O)C(C)C)C(C)C)C(C)C` [GVIDAAAKVVNVLKNLF], the MIC was at least 56.5 µM in the assay with Bacillus cereus; above 56.5 µM in the assay on Escherichia coli; at least 56.5 µM in assay [12]; 28.2 µM (≈ 50 µg/mL) in the assay with Streptococcus uberis; at least 56.5 µM against Pasteurella multocida; at least 56.5 µM with Micrococcus luteus. Further, the MIC was above 56.5 µM in the assay with Staphylococcus aureus, 6.78 µM (≈ 12 µg/mL) against Leuconostoc lactis and at least 56.5 µM against Listeria innocua.

In the case of `CC[C@H](C)[C@H](NC(=O)[C@@H](NC(=O)[C@H](CCCCN)NC(=O)[C@@H](N)[C@@H](C)O)C(C)C)C(=O)N1CCC[C@H]1C(=O)N[C@@H](Cc1ccc(O)cc1)C(=O)N[C@H](C(=O)N[C@@H](CCCN=C(N)N)C(=O)N[C@@H](Cc1ccc(O)cc1)C(=O)N[C@@H](CC(C)C)C(=O)O)C(C)C` [TKVIPYVRYL], the MIC in [13] was at least 78.1 µM; in assay [14], at least 156 µM.

As to `CC[C@H](C)[C@H](NC(=O)[C@@H](N)Cc1c[nH]c2ccccc12)C(=O)N[C@@H](CCC(N)=O)C(=O)N1CCC[C@H]1C(=O)N[C@@H](C)C(=O)N[C@H](C(=O)N[C@@H](C)C(=O)N[C@H](C(=O)N[C@H](C(=O)N1CCC[C@H]1C(=O)N[C@@H](Cc1ccc(O)cc1)C(=O)N[C@H](C(=O)N[C@@H](CCCN=C(N)N)C(=O)N[C@@H](Cc1ccc(O)cc1)C(=O)N[C@@H](CC(C)C)C(=O)O)C(C)C)[C@@H](C)CC)C(C)C)[C@@H](C)O` [WIQPATAVIPYVRYL], the MIC in [13] was at least 156 µM; in assay [14] it was at least 625 µM.

Molecule `CC[C@H](C)[C@H](NC(=O)[C@H](CO)NC(=O)[C@@H]1CCCN1C(=O)[C@H](C)NC(=O)CNC(=O)[C@H](CC(C)C)NC(=O)[C@H](CCCCN)NC(=O)[C@H](CCCN=C(N)N)NC(=O)[C@H](CCSC)NC(=O)[C@H](CCCN=C(N)N)NC(=O)[C@H](CCCN=C(N)N)NC(=O)[C@H](CCC(N)=O)NC(=O)[C@@H](N)Cc1c[nH]c2ccccc12)C(=O)N[C@H](C(=O)O)[C@@H](C)O` [WQRRMRKLGAPSIT] returned an MIC against Escherichia coli O111 of at least 58.8 µM.

As to `CC[C@H](C)[C@H](NC(=O)[C@H](CO)NC(=O)[C@@H]1CCCN1C(=O)[C@H](C)NC(=O)CNC(=O)[C@H](CC(C)C)NC(=O)[C@H](CCCN=C(N)N)NC(=O)[C@H](CCSC)NC(=O)[C@H](CCCN=C(N)N)NC(=O)[C@H](CCCN=C(N)N)NC(=O)[C@H](CCC(N)=O)NC(=O)[C@H](Cc1c[nH]c2ccccc12)NC(=O)[C@H](CCC(N)=O)NC(=O)[C@@H](N)Cc1ccc(O)cc1)C(=O)N[C@H](C(=O)O)[C@@H](C)O` [YQWQRRMRLGAPSIT], in the assay on Escherichia coli O111, the MIC was at least 322 µM.
